This note sets out measurements from the supplement of paper PMC11061612.

What all share (test): Bliss excess, mean over the matrix (fraction); higher = more synergy
Assay [1] has as its system 8505C (Thyroid Gland Carcinoma). A digest of the protocol:
(§1)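 Bliss excess equals the observed combination effect minus the expected value EA + EB − EA·EB, where EA and EB are the effects of each agent alone. Combination Emax is the second-highest inhibition within the matrix. Inhibition was scaled from CellTiter-Glo 2.0 luminescence, with 0 set by vehicle wells and 1 by blank wells, after 72 hours of two-drug dosing of cells plated in 1536-well plates.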

The subject of assay [2] is COR-L279 (Small Cell Lung Carcinoma). A digest of the protocol:
as §1

In assay [3] the test system is CW-2 (Colorectal Carcinoma). The gist of the method: as §1
Assay [4] has as its system DMS-114 (Small Cell Lung Carcinoma). The gist of the method:
as §1

Assay [5] deals with ESO51 (Esophageal Adenocarcinoma). A digest of the protocol:
as §1

Assay [6] deals with HCC1419 (Breast Carcinoma). A digest of the protocol: as §1
The subject of assay [7] is KMS-12-BM (Plasma Cell Myeloma). A digest of the protocol:
as §1

Assay [8] relates to KU812 (Chronic Myelogenous Leukemia). A digest of the protocol:
as §1

For another assay, the system named is NCI-H2731 (Mesothelioma). A digest of the protocol: as §1
Assay [9] relates to NCI-H3122 (Lung Adenocarcinoma). A digest of the protocol: as §1
Assay [10] has as its system NCI-H520 (Squamous Cell Lung Carcinoma). The gist of the method:
as §1

Assay [11] relates to NCI-H661 (Non-Small Cell Lung Carcinoma). A digest of the protocol: as §1
Another assay has as its system RD (Rhabdomyosarcoma). A digest of the protocol: as §1
In assay [12] the test system is RPMI-8226 (Plasma Cell Myeloma). The gist of the method: as §1
The subject of assay [13] is SK-GT-2 (Gastric Carcinoma). A digest of the protocol:
as §1

In assay [14] the test system is SK-GT-4 (Esophageal Adenocarcinoma). The gist of the method:
as §1

Assay [15] has as its system SNU-398 (Hepatocellular Carcinoma). The gist of the method:
as §1

Assay [16] relates to SU-DHL-5 (B-Cell Non-Hodgkin's Lymphoma). The gist of the method:
as §1

The subject of assay [17] is T-T (Esophageal Squamous Cell Carcinoma). The gist of the method:
as §1

The test system of assay [18] is VMRC-RCZ (Kidney Carcinoma). A digest of the protocol: as §1

The structures appear in SMILES notation.

In the case of `CC1(C)CCC(CN2CCN(c3ccc(C(=O)NS(=O)(=O)c4ccc(NCC5CCOCC5)c([N+](=O)[O-])c4)c(Oc4cnc5[nH]ccc5c4)c3)CC2)=C(c2ccc(Cl)cc2)C1` [Venetoclax] + C=CCn1c(=O)c2cnc(Nc3ccc(N4CCN(C)CC4)cc3)nc2n1-c1cccc(C(C)(C)O)n1 [AZD1775] (first compound max 1 µM, partner max 1 µM), the Bliss excess was -0.0083 in assay [1]; -0.0349 in assay [2]; -0.0091 in assay [3]; 0.0056 in [4]; -0.0404 in assay [5]; -0.0261 in assay [6]. For the same compound, the Bliss excess in [7] is 0.0356; in [8], 0.0294; in the assay on NCI-H2731 (Mesothelioma) it was -0.0295; in assay [9] it was -0.0505; in [10] it was -0.0031; in assay [11] it was -0.0588. Also, the Bliss excess was -0.0163 with RD (Rhabdomyosarcoma); 0.0368 in [12]; 0.0014 in assay [13]; 0.0384 in assay [14]; 0.0035 in assay [15]; -0.0814 in [16]. In addition, the Bliss excess in [17] was found to be 0.0832; in assay [18], 0.0418.
Turning to `COc1cccc(OCCCN)c1-c1cc(Nc2cnc(C#N)cn2)n[nH]1` [Prexasertib] + O=C(c1cc(Cc2n[nH]c(=O)c3ccccc23)ccc1F)N1CCN(C(=O)C2CC2)CC1 [Olaparib] (first compound max 1 µM, 7x7, partner max 10 µM), the Bliss excess was -0.0434 in assay [1]; -0.0493 in assay [2]; -0.0281 in assay [3]; 0.0146 in assay [4]; -0.248 in [5]; -0.0229 in assay [6]. The Bliss excess in assay [7] is -0.0312; in [8] it was -0.0947; in the assay on NCI-H2731 (Mesothelioma) it was -0.0228; in assay [9], 0.0161; in [10] it was -0.0756; in assay [11], -0.0373. For the same compound, the Bliss excess with RD (Rhabdomyosarcoma) is -0.0444; in assay [12] it was 0.0124; in [13] it was -0.0472; in assay [14], -0.0984; in assay [15] it was -0.0572; in assay [16], -0.0097. Moreover, the Bliss excess in [17] was 0.0186; in [18] it was -0.049.
On to `CN(CCO)CC[C@H](CSc1ccccc1)Nc1ccc(S(=O)(=O)NC(=O)c2ccc(N3CCC([C@@H](O)c4ccccc4-c4ccc(Cl)cc4)CC3)cc2)cc1S(=O)(=O)C(F)(F)F` [AZD4320] + C=CCn1c(=O)c2cnc(Nc3ccc(N4CCN(C)CC4)cc3)nc2n1-c1cccc(C(C)(C)O)n1 [AZD1775] (first compound max 1 µM, partner max 1 µM), for which the Bliss excess in assay [1] is 0.0033; in assay [2], 0.0798; in [3] it was 0.0032; in assay [4], 0.0074; in [5] it was 0.0693; in assay [6], -0.0722. The Bliss excess in assay [7] is 0.0716; in [8], 0.0788; in the assay with NCI-H2731 (Mesothelioma), -0.0106; in assay [9], -0.0108; in [10] it was -0.0444; in assay [11], -0.0018. Moreover, the Bliss excess is 0.0669 in the assay with RD (Rhabdomyosarcoma); 0.0467 in [12]; 0.0322 in [13]; -0.0438 in assay [14]; -0.0291 in assay [15]; 0.0007 in assay [16]. Further, the Bliss excess in assay [17] was 0.0409; in assay [18], -0.0418.
As for `CC1(C)CCC(CN2CCN(c3ccc(C(=O)NS(=O)(=O)c4ccc(NCC5CCOCC5)c([N+](=O)[O-])c4)c(Oc4cnc5[nH]ccc5c4)c3)CC2)=C(c2ccc(Cl)cc2)C1` [Venetoclax] + Cn1cnc2c(F)c(Nc3ccc(Br)cc3Cl)c(C(=O)NOCCO)cc21 [Selumetinib] (first compound max 1 µM, 7x7, partner max 3 µM), the Bliss excess in assay [1] is -0.0184; in [2], 0.0007; in [3], 0.0239; in [4], -0.0371; in assay [5], -0.0106; in assay [6], -0.0413. Also, the Bliss excess is -0.0118 in [7]; -0.0125 in assay [8]; -0.0525 in the assay on NCI-H2731 (Mesothelioma); -0.0309 in assay [9]; -0.0351 in [10]; -0.0243 in [11]. Also, the Bliss excess in the assay on RD (Rhabdomyosarcoma) was -0.0425; in [12], 0.0187; in [13] it was -0.0251; in [14], -0.0512; in assay [15], -0.0003; in assay [16] it was 0.0355. Moreover, the Bliss excess is 0.009 in [17] and -0.0422 in assay [18].
For the compound `Cn1cnc2c(F)c(Nc3ccc(Br)cc3Cl)c(C(=O)NOCCO)cc21` [Selumetinib] + CCN(CCO)CCCOc1ccc2c(Nc3cc(CC(=O)Nc4cccc(F)c4)[nH]n3)ncnc2c1 [AZD2811] (first compound max 10 µM, 7x7, partner max 1 µM), the Bliss excess in assay [1] is -0.0546; in assay [2], -0.0243; in assay [3] it was -0.0142; in [4] it was -0.0166; in [5], 0.0567; in [6], -0.0451. Moreover, the Bliss excess was 0.0832 in assay [7]; -0.0731 in [8]; -0.0293 in the assay on NCI-H2731 (Mesothelioma); 0.0093 in assay [9]; -0.0221 in [10]; -0.0645 in assay [11]. The Bliss excess with RD (Rhabdomyosarcoma) was -0.0016; in [12], 0.0053; in assay [13], -0.0443; in assay [14] it was -0.0533; in assay [15], 0.0026; in [16], 0.0214. In addition, the Bliss excess was -0.0072 in [17] and -0.0501 in assay [18].
For the compound `COc1nnc2ccc(N3CCC(c4ccc(OCCN5CCN(C)C(=O)[C@H]5C)cc4)CC3)nn12` [AZD5153] + CCN(CCO)CCCOc1ccc2c(Nc3cc(CC(=O)Nc4cccc(F)c4)[nH]n3)ncnc2c1 [AZD2811] (first compound max 1 µM, 7x7, partner max 1 µM), the Bliss excess in [1] was 0.03; in assay [2] it was -0.0201; in assay [3] it was -0.0525; in assay [4] it was -0.0127; in [5], -0.0152; in assay [6] it was -0.0414. The Bliss excess in assay [7] is 0.0641; in [8] it was -0.0011; in the assay on NCI-H2731 (Mesothelioma) it was -0.0294; in assay [9], -0.0217; in [10], 0.0242; in [11], -0.0318. The Bliss excess in the assay on RD (Rhabdomyosarcoma) was 0.0001; in assay [12], -0.0116; in [13], -0.0314; in assay [14], -0.0421; in [15] it was -0.0495; in assay [16], -0.0638. Besides, the figures for the Bliss excess in assay [17] and in assay [18] were -0.0284 and -0.0259, respectively.
Take `Cc1cc2ncnn2cc1Nc1ncc2c(n1)n(C1CCOCC1)c(=O)n2C` [AZD7648] + C=CCn1c(=O)c2cnc(Nc3ccc(N4CCN(C)CC4)cc3)nc2n1-c1cccc(C(C)(C)O)n1 [AZD1775] (first compound max 10 µM, partner max 1 µM): the Bliss excess in [1] is -0.0235; in assay [2], -0.0595; in assay [3] it was 0.0419; in [4], -0.0151; in assay [5] it was -0.0433; in assay [6] it was -0.0156. Moreover, the Bliss excess is 0.0085 in assay [7]; 0.0177 in assay [8]; -0.0225 in the assay with NCI-H2731 (Mesothelioma); -0.0402 in assay [9]; 0.004 in [10]; -0.0135 in assay [11]. The Bliss excess in the assay with RD (Rhabdomyosarcoma) is -0.0168; in assay [12], 0.0062; in assay [13] it was -0.047; in [14] it was -0.0515; in assay [15], 0.0128; in assay [16] it was 0.105. Besides, the Bliss excess in assay [17] is 0.002; in assay [18], 0.0117.
